Measurements published in US11628228B2, “99mTc-labeled isonitrile-containing glucose derivative and preparation method and use thereof” (Beijing Shihong Pharmaceutical Research Center, priority 2017, dated 2023).

Legend:
tumor-bearing mice = experiment: SPECT imaging in tumor-bearing mice; type: in vivo; conditions: 0.2 mL, 700 μCi tail vein, imaging 1 hour later
Protocol: The prepared [^99mTc-(CN3DG)6]^+ or [^99mTc-(CN5DG)6]^+ (0.2 mL, 700 μCi) is injected into tumor-bearing mice through tail vein, and SPECT imaging is performed 1 hour later.

S180-bearing mice = experiment: Bio-distribution in tumor-bearing mice; type: in vivo; conditions: for Blood uptake / Bone uptake / Heart uptake / Kidney uptake / Liver uptake / Lung uptake / Muscle uptake / Small intestine uptake / Spleen uptake / Stomach uptake / Tumor uptake / Tumor/blood ratio / Tumor/muscle ratio: S180-bearing mice, tail vein
Protocol: The labeled solution (0.1 mL, 74 KBq) is injected into mice through the tail vein, and the injection time is recorded. Then the mice were killed by cervical dislocation at different time phases (30 minutes, 60 minutes, and 120 minutes), five mice for each time phase, and the organs of interest such as heart, liver, lung, kidney, spleen, stomach, muscle, blood and tumor are taken out after dissection, and measured with a γ-counter for the radioactive count of each organ. The uptake value of each organ is obtained by calculation based on the mass of the organ (with % ID/g as the unit).

[1] = Determination of the lipid-water partition coefficient (n-octanol/PBS); type: physicochemical
Protocol: One hundred μL of the labeled substance solution (50 μCi) diluted with normal saline is placed into a 2 mL centrifuge tube, and then 800 μL of n-octanol and 700 μL of PBS are added to the centrifuge tube, which is subsequently covered with a cap. The centrifuge tube is vortexed for 3 minutes (2500 r/minute), allowed to stand until the solution is layered, and centrifuged in a centrifuge for 3 minutes (3000 r/minute). Three samples of the upper organic phase and three samples of the lower aqueous phase are taken, each 100 μL, and detected in a γ-counter for the radioactive counts of the organic and aqueous phases, respectively.

For O=C(CCCCC[N+]#[C][99Tc-5]([C]#[N+]CCCCCC(=O)NC1C(O)OC(CO)C(O)C1O)([C]#[N+]CCCCCC(=O)NC1C(O)OC(CO)C(O)C1O)([C]#[N+]CCCCCC(=O)NC1C(O)OC(CO)C(O)C1O)([C]#[N+]CCCCCC(=O)NC1C(O)OC(CO)C(O)C1O)[C]#[N+]CCCCCC(=O)NC1C(O)OC(CO)C(O)C1O)NC1C(O)OC(CO)C(O)C1O (centres unmarked) [[^99mTc-(CN5DG)6]^+], which “SPECT imaging: aggregation at the tumor sites” value (tumor-bearing mice) is on record?
Its value is “evident aggregation at the tumor sites”.

And the “SPECT imaging: concentration in kidney” value (tumor-bearing mice)?
Its value is “relatively high concentration in kidney”.

What about the “SPECT imaging: uptake in other organs” value (tumor-bearing mice) of the same molecule?
Its value is “relatively low”.

What about the Blood uptake (S180-bearing mice; 30 min) of the same molecule?
The Blood uptake was 1.58 ± 0.15 % ID/g.

What about the Bone uptake (S180-bearing mice; 30 min) of the same molecule?
Its Bone uptake is 0.72 ± 0.11 % ID/g.

And the Heart uptake (S180-bearing mice; 30 min)?
The Heart uptake was 0.64 ± 0.12 % ID/g.

And the Kidney uptake (S180-bearing mice; 30 min)?
Its Kidney uptake is 4.69 ± 0.76 % ID/g.

What about the Liver uptake (S180-bearing mice; 30 min) of the same molecule?
The Liver uptake was 0.61 ± 0.07 % ID/g.

What about the Lung uptake (S180-bearing mice; 30 min) of the same molecule?
The Lung uptake was 1.58 ± 0.18 % ID/g.

What about the Muscle uptake (S180-bearing mice; 30 min) of the same molecule?
The Muscle uptake was 0.46 ± 0.05 % ID/g.

What about the Small intestine uptake (S180-bearing mice; 30 min) of the same molecule?
Its Small intestine uptake is 0.74 ± 0.09 % ID/g.

What about the Spleen uptake (S180-bearing mice; 30 min) of the same molecule?
Its Spleen uptake is 0.51 ± 0.08 % ID/g.

What about the Stomach uptake (S180-bearing mice; 30 min) of the same molecule?
Its Stomach uptake is 0.50 ± 0.09 % ID/g.

What about the Tumor uptake (S180-bearing mice; 30 min) of the same molecule?
The Tumor uptake was 1.83 ± 0.18 % ID/g.

What about the Tumor/blood ratio (S180-bearing mice; 30 min) of the same molecule?
Its Tumor/blood ratio is 1.16.

What about the Tumor/muscle ratio (S180-bearing mice; 30 min) of the same molecule?
Its Tumor/muscle ratio is 3.98.

And the Blood uptake (S180-bearing mice; 60 min)?
Its Blood uptake is 0.55 ± 0.17 % ID/g.

What about the Bone uptake (S180-bearing mice; 60 min) of the same molecule?
The Bone uptake was 0.41 ± 0.15 % ID/g.

What about the Heart uptake (S180-bearing mice; 60 min) of the same molecule?
The Heart uptake was 0.41 ± 0.02 % ID/g.

And the Kidney uptake (S180-bearing mice; 60 min)?
Its Kidney uptake is 2.68 ± 0.32 % ID/g.

And the Liver uptake (S180-bearing mice; 60 min)?
The Liver uptake was 0.38 ± 0.08 % ID/g.

What about the Lung uptake (S180-bearing mice; 60 min) of the same molecule?
Its Lung uptake is 0.59 ± 0.16 % ID/g.

And the Muscle uptake (S180-bearing mice; 60 min)?
The Muscle uptake was 0.27 ± 0.10 % ID/g.

And the Small intestine uptake (S180-bearing mice; 60 min)?
The Small intestine uptake was 0.43 ± 0.07 % ID/g.

And the Spleen uptake (S180-bearing mice; 60 min)?
The Spleen uptake was 0.28 ± 0.07 % ID/g.

And the Stomach uptake (S180-bearing mice; 60 min)?
Its Stomach uptake is 0.37 ± 0.14 % ID/g.

What about the Tumor uptake (S180-bearing mice; 60 min) of the same molecule?
The Tumor uptake was 1.07 ± 0.21 % ID/g.

What about the Tumor/blood ratio (S180-bearing mice; 60 min) of the same molecule?
The Tumor/blood ratio was 1.94.

And the Tumor/muscle ratio (S180-bearing mice; 60 min)?
Its Tumor/muscle ratio is 3.96.

What about the Blood uptake (S180-bearing mice; 120 min) of the same molecule?
Its Blood uptake is 0.16 ± 0.02 % ID/g.

And the Bone uptake (S180-bearing mice; 120 min)?
Its Bone uptake is 0.15 ± 0.04 % ID/g.

And the Heart uptake (S180-bearing mice; 120 min)?
Its Heart uptake is 0.22 ± 0.04 % ID/g.

What about the Kidney uptake (S180-bearing mice; 120 min) of the same molecule?
Its Kidney uptake is 2.07 ± 0.13 % ID/g.

And the Liver uptake (S180-bearing mice; 120 min)?
The Liver uptake was 0.34 ± 0.08 % ID/g.

What about the Lung uptake (S180-bearing mice; 120 min) of the same molecule?
The Lung uptake was 0.29 ± 0.06 % ID/g.

What about the Muscle uptake (S180-bearing mice; 120 min) of the same molecule?
Its Muscle uptake is 0.18 ± 0.03 % ID/g.

What about the Small intestine uptake (S180-bearing mice; 120 min) of the same molecule?
Its Small intestine uptake is 0.22 ± 0.08 % ID/g.

What about the Spleen uptake (S180-bearing mice; 120 min) of the same molecule?
Its Spleen uptake is 0.17 ± 0.02 % ID/g.

What about the Stomach uptake (S180-bearing mice; 120 min) of the same molecule?
Its Stomach uptake is 0.35 ± 0.06 % ID/g.

What about the Tumor uptake (S180-bearing mice; 120 min) of the same molecule?
The Tumor uptake was 0.75 ± 0.07 % ID/g.

And the Tumor/blood ratio (S180-bearing mice; 120 min)?
The Tumor/blood ratio was 4.69.

And the Tumor/muscle ratio (S180-bearing mice; 120 min)?
The Tumor/muscle ratio was 4.16.

What about the Tumor/liver ratio (S180-bearing mice; tumor-bearing mice, 0.5 hour after injection) of the same molecule?
Its Tumor/liver ratio is 3.00.

And the “Log P (lipid-water partition coefficient)” value [1]?
The value was −3.57±0.35.
